Assays:
[1] = system: HL-60, a human promyelocytic leukemia cell line (Ag−); assay: In vitro cytotoxicity (MTT), HL-60 cells; format: cell-based; details: 120 hours incubation, read-out: IC50 (nM) HL60 cell (Ag−)
Procedure: (§1) The cell lines used in the cytotoxicity assays were HL-60, a human promyelocytic leukemia cell line; NCI-N87, a human gastric carcinoma cell line; and SKOV3, a human ovarian carcinoma cell line. For HL-60, and NCI-N87, the cells were grown in RPMI-1640 with 10% FBS. For SKOV3 cells, the cells were grown in McCoy's 5A Medium with 10% FBS. To run the assay, the cells (180 μl, 6000 cells) were added to each well in a 96-well plate and incubated for 24 hours at 37° C. with 5% CO2. Next, the cells were treated with test compounds (20 μl) at various concentrations in appropriate cell culture medium (total volume, 0.2 mL). The control wells contain cells and the medium but lack the test compounds. The plates were incubated for 120 hours at 37° C. with 5% CO2. MTT (5 mg/ml) was then added to the wells (20 μl) and the plates were incubated for 1.5 hr at 37° C. The medium was carefully removed and DMSO (180 μl) was added afterward. After it was shaken for 15 min, the absorbance was measured at 490 nm and 570 nm with a reference filter of 620 nm. The inhibition % was calculated according to the following equation: inhibition %=[1−(assay-blank)/(control-blank)]×100.

[2] = system: human gastric carcinoma N-87 cell line tumor xenograft; assay: Antitumor activity in vivo, N-87 tumor xenograft; design: species or system female BALB/c Nude mice; details: one injection
Procedure: Five-week-old female BALB/c Nude mice (30 animals) were inoculated subcutaneously in the area under the right shoulder with N-87 carcinoma cells (5×10^6 cells/mouse) in 0.1 mL of serum-free medium. The tumors were grown for 8 days to an average size of 136 mm^3. The animals were then randomly divided into 5 groups (6 animals per group). The first group of mice served as the control group and was treated with the phosphate-buffered saline vehicle. […] Three dimensions of the tumor were measured every 4 days and the tumor volumes were calculated using the formula tumor volume=½ (length×width×height). The weight of the animals was also measured at the same time. A mouse was sacrificed when any one of the following criteria was met: (1) loss of body weight of more than 20% from pretreatment weight, (2) tumor volume larger than 1500 mm^3, (3) too sick to reach food and water, or (4) skin necrosis. A mouse was considered to be tumor-free if no tumor was palpable.

[3] = system: SKOV3, a human ovarian carcinoma cell line (Ag+); assay: In vitro cytotoxicity (MTT), SK-OV-3 cells; format: cell-based
Procedure: as §1

[4] = system: NCI-N87, a human gastric carcinoma cell line (Ag+); assay: In vitro cytotoxicity (MTT), N87 cells; format: cell-based
Procedure: as §1

[5] = relative to HL60 cell (Ag−) IC50

T-DM1 was tested, and the IC50 [1] was over 15 nM, the “animals with no tumor measurable” value ([2]; 5 mg/Kg i.v., at days 13 and 21 until day 37 and 45, 6 animals per group) was 2/6 and the “duration of tumor growth inhibition” value ([2]; 5 mg/kg, i.v.) was “about 44 days”. For the same substance, the “anti-tumor effect (FIG. 12)” value ([2]; 5 mg/kg, i.v., day 13˜21 till day 60 (the end of experiment)) was “did not completely eliminate the tumor”, the IC50 ([3]; MTT, 120 hours incubation) was 0.177 nM and the “Specificity for SK-OV-3 cell” value [3, 5] was “over 84”. For the same substance, the IC50 ([4]; MTT, 120 hours incubation) was 0.266 nM and the “Specificity for N87 cell” value [4, 5] was “over 56”.
